From PMC6155662, “Trypanocidal Activity of Quinoxaline 1,4 Di-N-oxide Derivatives as Trypanothione Reductase Inhibitors” (Molecules : A Journal of Synthetic Chemistry and Natural …, 2017)
Read-outs that look alike come from different tables or passages of the source.

Experiments:
[1] = biological target: T1, recombinant T. cruzi TR (Trypanosoma cruzi, UniProt P28593); assay: TR enzyme inhibition (NADPH consumption at 340 nm); format: biochemical; settings: for inhibition at 5 µM: inhibitor 5 µM; for inhibition at 10 µM: inhibitor 10 µM; for inhibition at 20 µM: inhibitor 20 µM; for inhibition at 40 µM: inhibitor 40 µM; for inhibition at 60 µM: inhibitor 60 µM; for inhibition at 80 µM: inhibitor 80 µM, T-085 precipitates in the assay at 80 µM
T1 construct: made in house
T1 sequence (P28593 whole entry): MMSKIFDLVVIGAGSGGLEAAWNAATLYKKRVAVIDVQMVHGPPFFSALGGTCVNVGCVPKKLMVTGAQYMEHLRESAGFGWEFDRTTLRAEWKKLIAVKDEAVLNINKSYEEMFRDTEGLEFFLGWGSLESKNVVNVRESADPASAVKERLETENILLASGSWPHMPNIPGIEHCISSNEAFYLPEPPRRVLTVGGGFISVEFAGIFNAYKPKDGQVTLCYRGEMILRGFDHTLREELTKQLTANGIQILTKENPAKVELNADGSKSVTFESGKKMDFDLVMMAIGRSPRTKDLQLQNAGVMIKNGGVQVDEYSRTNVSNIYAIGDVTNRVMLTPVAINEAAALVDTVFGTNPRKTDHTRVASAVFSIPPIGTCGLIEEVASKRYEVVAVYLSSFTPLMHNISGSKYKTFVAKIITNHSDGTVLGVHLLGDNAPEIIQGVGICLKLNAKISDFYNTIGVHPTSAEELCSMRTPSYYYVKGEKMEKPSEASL
Procedure: (§1) Trypanothione disulfide (TS2) and recombinant T. cruzi TR were prepared following published procedures. Recombinant human glutathione reductase (GR) was kindly provided by Dr. Heiner Schirmer, Heidelberg Germany. Stock solutions (5 mM) of the inhibitors were prepared in DMSO. The kinetic analyses were conducted using a Jasco V650 spectrophotometer. All enzymatic tests were performed in polystyrene optical cuvettes (10 × 4 × 45 mm). TR activity was measured at 25 °C in a total volume of 1 mL TR assay buffer (40 mM HEPES, 1 mM EDTA, pH 7.5 [47]) containing 100 μM NADPH and 5–10 mU enzyme in the absence and presence of the inhibitor. Each assay contained a total of 5% DMSO. The reaction was started by adding TS2 and NADPH consumption was followed at 340 nm.
Five compound concentrations were used ranging from 100–5 μM. All measurements were performed twice in three independent series. Enzyme activity was plotted versus increasing inhibitor concentrations. IC50 values were calculated using the four-parameter equation model 205 and the option “unlock” from the XLfit add-in (IDBS, Guildford, United Kingdom) for Excel (Microsoft Corporation, Redmond, WA, USA).
The type of inhibition and the inhibitor constants were derived from Lineweaver-Burk plot. The activity of TR was measured in the absence and presence of two to three constant concentrations of inhibitor varying the concentration of TS2 (20, 40, 60, 100 and 200 µM). The inhibitory constant Ki was calculated from the direct plot using nonlinear least-squares data fitting in Excel spreadsheet.

[2] = biological target: T2, recombinant human glutathione reductase (GR) (Homo sapiens, UniProt P00390); assay: GR enzyme inhibition (NADPH consumption at 340 nm); format: biochemical; settings: inhibitor 5-60 μM; 100 µM GSSG; read-out: IC50 against hGR
T2 sequence (P00390 44-522): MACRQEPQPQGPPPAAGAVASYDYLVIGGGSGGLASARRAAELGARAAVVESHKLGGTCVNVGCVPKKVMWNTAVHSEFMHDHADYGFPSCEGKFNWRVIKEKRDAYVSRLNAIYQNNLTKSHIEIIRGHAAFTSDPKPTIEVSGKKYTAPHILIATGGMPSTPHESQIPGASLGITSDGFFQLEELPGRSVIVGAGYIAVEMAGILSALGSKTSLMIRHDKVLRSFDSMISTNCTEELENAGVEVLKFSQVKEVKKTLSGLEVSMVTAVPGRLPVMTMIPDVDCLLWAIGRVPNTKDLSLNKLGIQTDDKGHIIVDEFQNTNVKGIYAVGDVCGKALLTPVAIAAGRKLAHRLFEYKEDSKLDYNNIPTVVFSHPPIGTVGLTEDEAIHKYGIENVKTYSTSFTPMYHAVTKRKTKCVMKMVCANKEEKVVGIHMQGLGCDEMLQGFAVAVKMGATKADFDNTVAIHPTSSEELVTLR
Procedure: as §1
GR activity was measured at 25 °C in a total volume of 1 mL GR assay buffer (20.5 mM KH2PO4, 26.5 mM K2HPO4, 200 mM KCl, 1 mM EDTA, pH 6.9). The assays contained 100 µM NADPH and 5–10 mU GR and varying concentrations of the inhibitor. The reaction was started by adding 100 µM GSSG and the absorption decrease was followed at 340 nm.
Five compound concentrations were used ranging from 100–5 μM. […] IC50 values were calculated using the four-parameter equation model 205 and the option “unlock” from the XLfit add-in (IDBS, Guildford, United Kingdom) for Excel (Microsoft Corporation, Redmond, WA, USA).

[3] = tested on: T. cruzi INC-5 epimastigotes; assay: Viability (MTT) assay on T. cruzi epimastigotes; format: cell-based, Trypanosoma cruzi; settings: 24 h, mean and SD of triplicate
Procedure: In this study, two strains of T. cruzi isolated in Mexico were used. […] Epimastigotes were cultured in vitro in liver infusion-tryptose (LIT) medium supplemented with 10% heat inactivated fetal bovine serum (FBS) (Gibco) and 100 U/mL penicillin-streptomycin (In vitro S.A.), and incubated at 27 °C. CD1 mice, aged 6–8 weeks, were infected with T. cruzi to obtain bloodstream trypomastigote samples.
Viability assays of T. cruzi epimastigotes using 3-(4,5-dimethylthiazol-2-yl)-2,5-diphenyltetrazolium bromide (MTT) were performed. Briefly, the parasites were harvested during the exponential growth phase for a period of five days. In a 96-well microplate 1x10^6 epimastigotes were deposited in brain-heart infusion (BHI) medium supplemented with 10% FBS and 100 U/mL antibiotic-antifungal mixture (Gibco). […] Each well reached a final volume of 100 µL. Each condition was assessed in triplicate. The microplate was incubated for 24 h at 27 °C in darkness. Afterwards, 10 μL of a 5 mg/mL MTT solution was added and the plate was incubated for 20 h at 27 °C. Then 200 μL of 10% dodecyl sulfate (SDS)/0.1% HCl solution was added to dissolve formazan salts; the plate was incubated an additional 4 h. Finally, the plate was read at 570 nm in a spectrophotometer (Multiskan EX Thermo Electron, Taipei, Taiwan). The amount of viable cells was proportional to the amount of formazan produced. […] Later the results were converted to micromolar units. […] As a […] control, parasites were incubated only in culture medium with a 1% DMSO concentration, corresponding to the highest sample dilution of DMSO [34, 35, 36].

[4] = 40 µM TS2, read-out: % Inhibition of TR at 40 µM [TS2]
[5] = 100 µM TS2, read-out: % Inhibition of TR at 100 µM [TS2]

type of inhibition ([1]; TcTR, Lineweaver-Burk plot): non-competitive inhibitor
Ki ([1]; TcTR, Lineweaver-Burk plot, inhibitor 15 and 50 µM, TS2 20-200 µM): 35 µM
inhibition at 5 µM [1, 4]: 20.3%
inhibition at 5 µM [1, 5]: 15.2%
inhibition at 10 µM [1, 4]: 34.1%
inhibition at 10 µM [1, 5]: 24.7%
inhibition at 20 µM [1, 4]: 45.7%
inhibition at 20 µM [1, 5]: 36.1%
inhibition at 40 µM [1, 4]: 55.1%
inhibition at 40 µM [1, 5]: 48.1%
inhibition at 60 µM ([1]; the highest concentration that could be measured, 100 μM or 40 μM TS2, read-out: % inhibition of TR): 60%
inhibition at 60 µM [1, 4]: 60.9%
inhibition at 60 µM [1, 5]: 60.1%
inhibition at 80 µM [1, 4]: 44%
inhibition at 80 µM [1, 5]: 33%
IC50 ([1]; inhibitor 5-60 μM, read-out: IC50 against TcTR): 50 µM
IC50 [2]: 50 µM
IC50 [3]: 2.42 ± 0.5 µM
IC50 ([3]; Trypanosoma cruzi): < 2.5 µM
Structure (SMILES): CC(C)OC(=O)c1ccc2c(c1)[n+]([O-])c(C(=O)C(C)C)c(C(F)(F)F)[n+]2[O-] [Compound T-085, Isopropyl 2-isobutyryl-3-trifluoromethylquinoxaline-7-carboxylate 1,4-di-N-oxide]
